This passage reports IC50 results from ChEMBL document CHEMBL1151160, “Challenges and rewards of research in marine natural products chemistry in Brazil” (J Nat Prod, 2004).

What all share (type): functional, cell-based
For assay [1], the system named is MCF7. As to the kind of experiment: Inhibition of G2 check point in gamma-irradiated human MCF7 cells expressing mutant p53 after 16 hrs by flow cytometry. The settings on record: MCF7, light or radiation study. On the technique in general: In flow cytometry, cells or beads pass a laser one at a time.
Assay [2] deals with MCF7. As to the kind of experiment: Cytotoxicity against human MCF7 cells after 16 hrs by Celltiter assay. The settings on record: MCF7, 16 h.
Another assay deals with HCT-116. Kind of assay: Cytotoxicity against human HCT116 cells.

Converted amounts (≈) assume the structure as drawn.

By IC50 is commonly meant the concentration that gives 50% inhibition. A low value points to greater potency in that assay. The compound `O=C1NC(=O)c2c1c1[nH]cnc1c1[nH]c3ccccc3c21` [GRANULATIMIDE] showed an IC50 with MCF7 [1] of 1000 nM.
Take `O=C1NC(=O)c2c1c1c3ccccc3[nH]c1n1cncc21` [ISOGRANULATIMIDE]: the results for the IC50 with MCF7 [1] and with MCF7 [2] were 1000 nM and 40000 nM, respectively.
Consider `CC(=O)OCC(C)CCC[C@@H](C)[C@H]1CC[C@H]2[C@@H]3C[C@@H](O)[C@@]4(O)C[C@@H](O[C@@H]5OC[C@@H](O)[C@@H](OC(C)=O)[C@@H]5O)CC[C@]4(C)[C@H]3CC[C@]12C` (stereo not given in full) [RIISEIN A], for which the IC50 with HCT-116 is 2 µg/mL (≈ 3.06 µM).
With `CC(=O)OCC(C)CCC[C@@H](C)[C@H]1CC[C@H]2[C@@H]3C[C@@H](O)[C@@]4(O)C[C@@H](O[C@@H]5OC[C@@H](OC(C)=O)[C@@H](O)[C@@H]5O)CC[C@]4(C)[C@H]3CC[C@]12C` (stereo not given in full) [RIISEIN B], in the assay with HCT-116, half-maximal inhibition (IC50) required 2 µg/mL (≈ 3.06 µM).
